# Measurements published in ChEMBL document CHEMBL1201862, “PubChem BioAssay data set” (2004).
#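 Exposure lasted 48 hours, with cells grown in 96-well plates and compounds tested at five concentrations. Abbreviation: GI50, concentration required for 50% inhibition of growth.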 The source made the active and inactive calls. No stated cut-off is given here; in the data, active = GI50 up to about 1.1 µM and inactive = higher.
# What was measured:
# Experiment in all cases: NCI anticancer screen, dose series, 48 h
# OVCAR-4 = tested on: OVCAR-4
# SNB-75 = tested on: SNB-75
# CCRF-CEM = tested on: CCRF-CEM
# HL-60 = tested on: HL-60
# K562 = tested on: K562
# TK-10 = tested on: TK-10
# OVCAR-8 = tested on: OVCAR-8
# M19-MEL = tested on: M19-MEL
# HOP-92 = tested on: HOP-92
# U-251 = tested on: U-251
# UO-31 = tested on: UO-31
# SK-MEL-2 = tested on: SK-MEL-2
# NCI-H226 = tested on: NCI-H226
# Malme-3M = tested on: Malme-3M
# COLO 205 = tested on: COLO 205
# RPMI-8226 = tested on: RPMI-8226
# DMS-114 = tested on: DMS-114
# NCI-H23 = tested on: NCI-H23
# UACC-257 = tested on: UACC-257
# SF-539 = tested on: SF-539
# A498 = tested on: A498
# DMS-273 = tested on: DMS-273
# M14 = tested on: M14
# SW-620 = tested on: SW-620
# CAKI-1 = tested on: CAKI-1
# EKVX = tested on: EKVX
# KM-20L2 = tested on: KM-20L2
# SF-295 = tested on: SF-295
# HT-29 = tested on: HT-29
# MOLT-4 = tested on: MOLT-4
# ACHN = tested on: ACHN
# SNB-78 = tested on: SNB-78
# NCI-H522 = tested on: NCI-H522
# HOP-18 = tested on: HOP-18
# SN12C = tested on: SN12C
# HCT-116 = tested on: HCT-116
# HCC 2998 = tested on: HCC 2998
# SK-MEL-28 = tested on: SK-MEL-28
# HOP-62 = tested on: HOP-62
# OVCAR-3 = tested on: OVCAR-3
# DLD-1 = tested on: DLD-1
# SF-268 = tested on: SF-268
# KM12 = tested on: KM12
# SK-OV-3 = tested on: SK-OV-3
# UACC-62 = tested on: UACC-62
# OVCAR-5 = tested on: OVCAR-5
# IGROV-1 = tested on: IGROV-1
# A549 = tested on: A549
# SK-MEL-5 = tested on: SK-MEL-5
# HCT-15 = tested on: HCT-15
# LXFL 529 = tested on: LXFL 529
# SR = tested on: SR
# NCI-H460 = tested on: NCI-H460
# NCI/ADR-RES = tested on: NCI/ADR-RES
# MCF7 = tested on: MCF7
# LOX IMVI = tested on: LOX IMVI
# RXF 393 = tested on: RXF 393
# SNB-19 = tested on: SNB-19
# 786-0 = tested on: 786-0
compound,measurement,setting,value
CC(=O)OCC1=C(COC(C)=O)C(=O)c2c(O)ccc(O)c2C1=O,GI50,OVCAR-4,10.8 µM (inactive)
same,GI50,SNB-75,16.1 µM (inactive)
same,GI50,CCRF-CEM,2.45 µM (inactive)
same,GI50,HL-60,1.49 µM (inactive)
same,GI50,K562,17.9 µM (inactive)
same,GI50,TK-10,16.3 µM (inactive)
same,GI50,OVCAR-8,10.2 µM (inactive)
same,GI50,M19-MEL,1.73 µM (inactive)
same,GI50,HOP-92,2.54 µM (inactive)
same,GI50,U-251,13.1 µM (inactive)
same,GI50,UO-31,15.4 µM (inactive)
same,GI50,SK-MEL-2,3.11 µM (inactive)
same,GI50,NCI-H226,15.8 µM (inactive)
same,GI50,Malme-3M,4.28 µM (inactive)
same,GI50,COLO 205,2.38 µM (inactive)
same,GI50,RPMI-8226,3.2 µM (inactive)
same,GI50,DMS-114,11.2 µM (inactive)
same,GI50,NCI-H23,12.1 µM (inactive)
same,GI50,UACC-257,5.14 µM (inactive)
same,GI50,SF-539,6.34 µM (inactive)
same,GI50,A498,18.4 µM (inactive)
same,GI50,DMS-273,15.5 µM (inactive)
same,GI50,M14,5.3 µM (inactive)
same,GI50,SW-620,3.21 µM (inactive)
same,GI50,CAKI-1,5.66 µM (inactive)
same,GI50,EKVX,15.1 µM (inactive)
same,GI50,KM-20L2,13.4 µM (inactive)
same,GI50,SF-295,13.4 µM (inactive)
same,GI50,HT-29,11.7 µM (inactive)
same,GI50,MOLT-4,1.37 µM (inactive)
same,GI50,ACHN,10.2 µM (inactive)
same,GI50,SNB-78,3.78 µM (inactive)
same,GI50,NCI-H522,1.55 µM (inactive)
same,GI50,HOP-18,21 µM (inactive)
same,GI50,SN12C,10.4 µM (inactive)
same,GI50,HCT-116,12.1 µM (inactive)
same,GI50,HCC 2998,15.9 µM (inactive)
same,GI50,SK-MEL-28,4.9 µM (inactive)
same,GI50,HOP-62,21 µM (inactive)
same,GI50,OVCAR-3,7.1 µM (inactive)
same,GI50,DLD-1,1.43 µM (inactive)
same,GI50,SF-268,13.8 µM (inactive)
same,GI50,KM12,13.3 µM (inactive)
same,GI50,SK-OV-3,18.8 µM (inactive)
same,GI50,UACC-62,5.56 µM (inactive)
same,GI50,OVCAR-5,16.4 µM (inactive)
same,GI50,IGROV-1,16 µM (inactive)
same,GI50,A549,17.4 µM (inactive)
same,GI50,SK-MEL-5,14.8 µM (inactive)
same,GI50,HCT-15,10.4 µM
same,GI50,LXFL 529,2.55 µM (inactive)
same,GI50,SR,5.47 µM (inactive)
O=C1Nc2ccccc2Nc2ccncc21,GI50,OVCAR-4,> 100 µM (inactive)
same,GI50,SNB-75,> 76 µM (inactive)
same,GI50,CCRF-CEM,> 100 µM (inactive)
same,GI50,HL-60,> 100 µM (inactive)
same,GI50,K562,> 100 µM (inactive)
same,GI50,OVCAR-8,> 100 µM (inactive)
same,GI50,M19-MEL,> 100 µM (inactive)
same,GI50,HOP-92,> 100 µM (inactive)
same,GI50,U-251,> 100 µM (inactive)
same,GI50,UO-31,> 100 µM (inactive)
same,GI50,SK-MEL-2,> 100 µM (inactive)
same,GI50,NCI-H226,> 100 µM (inactive)
same,GI50,Malme-3M,> 100 µM (inactive)
same,GI50,COLO 205,> 100 µM (inactive)
same,GI50,RPMI-8226,> 100 µM (inactive)
same,GI50,DMS-114,> 100 µM (inactive)
same,GI50,NCI-H460,> 100 µM (inactive)
same,GI50,NCI/ADR-RES,> 100 µM (inactive)
same,GI50,NCI-H23,> 100 µM (inactive)
same,GI50,MCF7,> 100 µM (inactive)
same,GI50,UACC-257,> 100 µM (inactive)
same,GI50,SF-539,> 100 µM (inactive)
same,GI50,A498,> 100 µM (inactive)
same,GI50,DMS-273,> 100 µM (inactive)
same,GI50,SW-620,> 100 µM (inactive)
same,GI50,CAKI-1,> 100 µM (inactive)
same,GI50,EKVX,> 100 µM (inactive)
same,GI50,LOX IMVI,> 100 µM (inactive)
same,GI50,KM-20L2,> 100 µM (inactive)
same,GI50,SF-295,> 100 µM (inactive)
same,GI50,HT-29,> 100 µM (inactive)
same,GI50,RXF 393,> 100 µM (inactive)
same,GI50,MOLT-4,> 100 µM (inactive)
same,GI50,SNB-78,> 100 µM (inactive)
same,GI50,NCI-H522,> 100 µM (inactive)
same,GI50,HOP-18,> 100 µM (inactive)
same,GI50,SN12C,> 31.6 µM (inactive)
same,GI50,HCT-116,> 100 µM (inactive)
same,GI50,HCC 2998,> 100 µM (inactive)
same,GI50,SK-MEL-28,> 100 µM (inactive)
same,GI50,HOP-62,> 100 µM (inactive)
same,GI50,OVCAR-3,> 100 µM (inactive)
same,GI50,DLD-1,> 100 µM (inactive)
same,GI50,SF-268,> 100 µM (inactive)
same,GI50,KM12,> 100 µM (inactive)
same,GI50,SK-OV-3,> 100 µM (inactive)
same,GI50,UACC-62,> 100 µM (inactive)
same,GI50,OVCAR-5,> 100 µM (inactive)
same,GI50,IGROV-1,> 100 µM (inactive)
same,GI50,A549,> 100 µM (inactive)
same,GI50,SK-MEL-5,> 100 µM (inactive)
same,GI50,SNB-19,> 100 µM (inactive)
same,GI50,HCT-15,> 100 µM
CCOC(=O)Cc1nc(/C(C#N)=C/c2ccco2)[nH]c(=O)c1C#N,GI50,OVCAR-4,> 100 µM (inactive)
same,GI50,SNB-75,> 100 µM (inactive)
same,GI50,CCRF-CEM,> 100 µM (inactive)
same,GI50,HL-60,95.3 µM (inactive)
same,GI50,K562,> 100 µM (inactive)
same,GI50,TK-10,> 100 µM (inactive)
same,GI50,OVCAR-8,> 100 µM (inactive)
same,GI50,M19-MEL,> 100 µM (inactive)
same,GI50,HOP-92,> 100 µM (inactive)
same,GI50,U-251,> 100 µM (inactive)
same,GI50,UO-31,> 100 µM (inactive)
same,GI50,SK-MEL-2,> 100 µM (inactive)
same,GI50,NCI-H226,> 100 µM (inactive)
same,GI50,COLO 205,33.5 µM (inactive)
same,GI50,RPMI-8226,> 100 µM (inactive)
same,GI50,NCI-H460,> 100 µM (inactive)
same,GI50,NCI-H23,> 100 µM (inactive)
same,GI50,UACC-257,> 100 µM (inactive)
same,GI50,SF-539,> 100 µM (inactive)
same,GI50,DMS-273,> 100 µM (inactive)
same,GI50,M14,> 100 µM (inactive)
same,GI50,SW-620,> 100 µM (inactive)
same,GI50,CAKI-1,> 100 µM (inactive)
same,GI50,EKVX,> 100 µM (inactive)
same,GI50,LOX IMVI,> 100 µM (inactive)
same,GI50,KM-20L2,> 100 µM (inactive)
same,GI50,SF-295,43.9 µM (inactive)
same,GI50,786-0,> 100 µM (inactive)
same,GI50,HT-29,> 100 µM (inactive)
same,GI50,RXF 393,> 100 µM (inactive)
same,GI50,MOLT-4,> 100 µM (inactive)
same,GI50,ACHN,> 100 µM (inactive)
same,GI50,SNB-78,37.8 µM (inactive)
same,GI50,NCI-H522,39.2 µM (inactive)
same,GI50,HOP-18,> 100 µM (inactive)
same,GI50,SN12C,> 100 µM (inactive)
same,GI50,HCT-116,> 100 µM (inactive)
same,GI50,HCC 2998,> 100 µM (inactive)
same,GI50,HOP-62,> 100 µM (inactive)
same,GI50,OVCAR-3,> 100 µM (inactive)
same,GI50,DLD-1,> 100 µM (inactive)
same,GI50,KM12,> 100 µM (inactive)
same,GI50,SK-OV-3,> 100 µM (inactive)
same,GI50,UACC-62,35.4 µM (inactive)
same,GI50,OVCAR-5,> 100 µM (inactive)
same,GI50,IGROV-1,> 100 µM (inactive)
same,GI50,A549,> 100 µM (inactive)
same,GI50,SK-MEL-5,> 100 µM (inactive)
same,GI50,SNB-19,> 100 µM (inactive)
same,GI50,HCT-15,> 100 µM
same,GI50,LXFL 529,> 100 µM (inactive)
same,GI50,SR,97.1 µM (inactive)
